Measured values: patent US9155761B2, “Method for the treatment of cancer” (UNIVERSITY COLLEGE CORK, NATIONAL UNIVERSITY OF IRELAND, …, priority 2009, dated 2015)
“Also recorded” adds a separate entry of the source. Read-outs that look alike come from different tables or passages of the source. Residues, ends and D or L forms follow the SMILES beside them. *: point of attachment. Cbz = O=C(OCc1ccccc1)*; CH2F = FC*

What was measured:
[1] = test system: KYSE450; assay: Evaluation of cell death morphology by light microscopy; assay type: cell-based, human
Method: (§1) Morphological features of cells treated with 5-fluorouracil (5-FU)/cisplatin, without and with 3-MA, LY294002, Bafilomycin, Lithium chloride, rapamycin or HA14-I were examined by light microscopy. Morphologies of treated cells were examined 24 and 48 hours post treatment, treatment times are referred to in figure legends. Aliquots of vehicle control and drug treated cells were cytospun onto glass slides and stained with Rapi-Diff (Braidwood laboratories, UK). The extent of apoptotic and non-apoptotic cell death was determined by counting the cells in at least three fields of view per slide, with an average of ˜100 cells per field. Apoptotic cell death is characterized by the presence of two or more of the following morphological features: cell shrinkage, chromatin condensation, DNA degradation and fragmentation into ‘apoptotic bodies’, within an intact plasma membrane. Autophagic cell death was identified by clear elevation of cytoplasmic vesicles, loss of cytoplasmic material, pyknosis of the nuclear material and an intact nuclear membrane. Cytospin images are representative of at least three independent experiments.

[2] = test system: OE21
Method: as §1

[3] = test system: KYSE450; assay type: cell-based, human
Method: (§2) Viability of esophageal cells was assessed using the MTT reduction assay. Cells are seeded at 2×10^4 (OE33/OE19) and 1×10^4 (OE21/KYSE450) cells per cm^2, treated for 48-96 hours and incubated for an additional 60 minutes at 37° C. in 0.5 mg/ml MTT dye. Viable, metabolizing cells reduce MTT dye, producing a dark formazan product, with absorbance read at 562 nm, reference wavelength 620 nm. To assess recovery, at 48 hours post treatment, in replicate plates (identical seeding & treatment times), all drugs were removed, culture medium was replaced, and these cells were cultured for a further 48-96 hours, to monitor their ability to recover and MTT assay was repeated.
(§3) In analysis of MTT data, values are presented as the Mean absorbance+/−Standard Error of the Mean (S.E.M) for four independent experiments. Statistical analysis was performed with paired Student's t-test. Values of p<0.05 were considered statistically significant. Asterisks indicate the level of significance.

[4] = test system: OE19; assay: Evaluation of cell death morphology by light microscopy; assay type: cell-based, human
Method: as §1

[5] = test system: OE33; assay: as above; assay type: cell-based, human; conditions: 5-FU (50 μM) or cisplatin (40 μM), 48 hours
Method: as §1

[6] = test system: LC3 in OE21 cells; assay: LC3 / GFP-LC3 processing and distribution (Western blot, fluorescence microscopy); assay type: cell-based, human; conditions: 5-FU or cisplatin (images not shown)
Method: (§4) Total cellular protein extracts were prepared by scraping the cells into modified RIPA buffer (50 mM Tris HCl (pH 7.4), 150 mM NaCl, 0.25% Sodium deoxycholate, 1% Igepal, protease inhibitors 1 mM EDTA, 1× Pefabloc, 1× protease inhibitor cocktail, 1 mM Na3VO4, 1 mM NaF). All protein samples were separated by SDS-PAGE (10/12%) and electrophoretically transferred onto nitrocellulose membrane. All primary antibodies were incubated overnight at 4° C.: anti-phospho mTOR (Ser 2448) and anti-p70^S6K (Thr 389) (Cell Signaling Technologies, UK), anti-Beclin-1 (BD Biosciences, UK) and anti-LC3 (Medical & Biological Laboratories, Japan). The membranes were incubated with the relevant horseradish peroxidase conjugated secondary antibodies (DakoCytomation, Dublin) and detected by chemiluminescence (ECL Amersham, UK).
(§5) To visualize and quantify the formation of autophagic vesicles, the green fluorescent protein (GFP)-LC3 (pEGFP-LC3) expression vector, kindly supplied by Dr. T. Yoshimori (National Institute of Genetics, Japan) was used. Cells were transiently transfected with the Amaxa electroporation system according to the supplier's protocol. Twenty-four hours post transfection, cells were treated with 5-FU and/or Cisplatin, fixed in 4% paraformaldehyde in PBS and transferred onto slides using a non-fluorescent fixative for analysis by fluorescence microscopy. Alternatively, Western Blot analysis was used to assess the expression and processing of LC3. […] The membrane sequestered, lipid-conjugated form of LC3-II remains with the autophagosome membrane after the vesicle has formed, and levels of both isoform are detected by Western Blot. Transfection efficiency was consistent for a given cell line, OE33 and KYSE450 cell lines (˜60-70%) compared to OE19 and OE21 cell lines (˜30%).

[7] = test system: LC3 in KYSE450 cells; assay: as above; assay type: cell-based, human
Method: as §4, §5

[8] = test system: LC3 in OE19 cells; assay: as above; assay type: cell-based, human
Method: as §4, §5

[9] = test system: LC3 in OE33 cells; assay: as above; assay type: cell-based, human
Method: as §4, §5

[10] = test system: OE19; assay: Monodansylcadaverine (MDC)-labelled vacuoles; assay type: cell-based, human; conditions: 25 μM
Method: (§6) MDC is an autofluorescent weak base that accumulates in acidic lysosomal vacuoles, showing high selectivity for autophagosomes, due to the high level of unhydrolyzed membrane lipids from engulfed organelles, which enhance MDC fluorescence. Cells were incubated with 0.1 mM MDC in PBS at 37° C. for 10 minutes (Biederbick et al., 1995), washed and immediately analyzed by fluorescent microscopy.

[11] = test system: OE33; assay: Monodansylcadaverine (MDC)-labelled vacuoles; assay type: cell-based, human; conditions: 25 μM
Method: as §6

[12] = test system: OE21; assay: Monodansylcadaverine (MDC)-labelled vacuoles; assay type: cell-based, human; conditions: 25 μM
Method: as §6

[13] = test system: KYSE450; assay: Monodansylcadaverine (MDC)-labelled vacuoles; assay type: cell-based, human; conditions: 25 μM
Method: as §6

[14] = test system: OE19; assay: Mitochondrial depolarization, JC-1 probe; assay type: cell-based, human; conditions: 48 hour treatment
Method: (§7) Mitochondrial membrane potential was determined using the JC-1 probe (Molecular Probes). In non-apoptotic cells, JC1 accumulates as aggregates in the mitochondria, which stain red (FL2; 590 nm). At the onset of apoptosis, a loss of mitochondrial membrane potential (ΔΨm) releases the aggregated JC1, returning it to its monomeric form, which stains the cytosol green (FL1; 530 nm). Therefore, fluorescence of the JC-1 probe in the FL-2 channel decreases as mitochondrial membrane integrity is lost, while the fluorescence in FL-1 channel increases. Cells were incubated in JC1 (7.5 μg/ml) at 37° C. for 15 mins, and washed prior to analysis by flow cytometry (FACScan, Becton Dickinson). Percentages denote the proportion of cells with depolarised mitochondria following 48 hour incubation with 5-Fluorouracil and represent at least three independent experiments.

[15] = test system: OE33; assay: Mitochondrial depolarization, JC-1 probe; assay type: cell-based, human; conditions: 48 hour treatment
Method: as §7

[16] = test system: OE21; assay: Mitochondrial depolarization, JC-1 probe; assay type: cell-based, human; conditions: 48 hour treatment
Method: as §7

[17] = test system: KYSE450; assay: Mitochondrial depolarization, JC-1 probe; assay type: cell-based, human; conditions: 48 hour treatment
Method: as §7

[18] = test system: OE19; assay: MTT viability and recovery assay; assay type: cell-based, human; conditions: 10 μM cisplatin, 48 hours
Method: as §2, §3

[19] = test system: OE33; assay: MTT viability and recovery assay; assay type: cell-based, human; conditions: 10 μM cisplatin, 48 hours
Method: as §2, §3

[20] = test system: OE21; assay: MTT viability and recovery assay; assay type: cell-based, human
Method: as §2, §3

[21] = test system: active caspase-3 in OE33 cells; assay: Active caspase-3 by flow cytometry; assay type: cell-based, human; conditions: 48 hours after treatment
Method: (§8) To examine control and 5-Fluorouracil treated cells for evidence of caspase activity cells were processed by trypsinization, 48 hours after treatment. […] This was detected with an anti rabbit FITC conjugated secondary antibody, and samples were analyzed by FACScan at 530 nm (FL-1). Percentages indicate the proportion of cells with active caspase-3, detected as an increase in the number of FITC (FL-1) labelled cells.

[22] = test system: active caspase-3 in OE19 cells; assay: Active caspase-3 by flow cytometry; assay type: cell-based, human; conditions: 48 hours after treatment
Method: as §8

[23] = test system: active caspase-3 in OE21 cells; assay: Active caspase-3 by flow cytometry; assay type: cell-based, human; conditions: 48 hours after treatment
Method: as §8

[24] = test system: active caspase-3 in KYSE450 cells; assay: Active caspase-3 by flow cytometry; assay type: cell-based, human; conditions: 48 hours after treatment, range of concentrations
Method: as §8

[25] = 40 μM cisplatin, 48 hours (FIG. 1c)
[26] = 5-FU (50 μM) or cisplatin (40 μM), 48 hours
[27] = 10 nM, 24 and 48 hours post treatment

## CCOC(=O)C1=C(N)Oc2ccc(Br)cc2C1C(C#N)C(=O)OCC (stereo not drawn) [HA14-1]
[1]; HA14-1 (5 μM) and/or 5-FU (50 μM), 24 hours
  morphology: rarely causes apoptosis
[1]; HA14-1 (5 μM) and/or 5-FU (50 μM), 24 hours, listed as HA14-I
  morphology: the induction of apoptosis is observed, but at very low levels
[1]; HA14-1 (10 μM) without and with 5-FU (50 μM), 24 hours
  morphology: the induction of apoptosis is apparent, but again at low levels
[1]; HA14-1 (20 μM), 24 hours
  morphology: rarely causes apoptosis
[1]; HA14-1 (20 μM), 24 hours, listed as HA14-I
  morphology: the induction of apoptosis is apparent, but again at low levels
[1]; HA14-1 (30 μM), 24 hours
  morphology: apoptotic cells are visible
[1]; HA14-1 (30 μM), 24 hours, listed as HA14-I
  morphology: induced clear levels of apoptotic cell death
[1]; HA14-1 (30 μM), 48 hours
  morphology: apoptotic cells are visible
[1]; HA14-1 (30 μM), 48 hours, listed as HA14-I
  morphology: induced clear levels of apoptotic cell death

## COC(=O)C[C@H](NC(=O)[C@H](C)NC(=O)[C@@H](NC(=O)OCc1ccccc1)C(C)C)C(=O)CF [zVAD-fmk] (Cbz-Val-Ala-Asp(OMe)-CH2F)
[2]; zVAD-fmk (25 μM) for 2 hours prior to 5-FU treatment
  inhibition of apoptosis induced by 5-FU: completely inhibited

## Cn1cnc(N)c2ncnc1-2 [3-MA, 3-Methyladenine]
[1]; 3-MA (10.0 μM) without and with 5-FU (50 μM), 48 hours
  morphology: did not significantly affect morphology
[2]; 3-MA without and with 5-FU (30 μM), 48 hours
  morphology: did not significantly affect morphology

## N.N.[Cl][Pt][Cl] [cisplatin]
[3]; 10 μM cisplatin, 48 hours
  cell viability (MTT): only marginally affected
[4]; [25]
  apoptosis: 0.5%
  non-apoptotic cell death: 38%
[4]; [26]
  cell death morphology: predominantly non-apoptotic morphology
[5]
  cell death morphology: predominantly apoptotic cell death morphology
[1]; [26]
  cell death morphology: predominantly non-apoptotic morphology
[6]
  GFP-LC3 distribution (fluorescence microscopy): Diffuse cytoplasmic localization of GFP-LC3
[7]; 5-FU or cisplatin (data not shown)
  GFP-LC3 distribution (fluorescence microscopy): Redistribution of GFP-LC3 from a diffuse cytosolic to a punctate autophagosome-associated pattern
[8]; 5-FU (25 & 50 μM) or cisplatin (10 & 25 μM)
  GFP-LC3 distribution (fluorescence microscopy): Redistribution of GFP-LC3 from a diffuse cytosolic to a punctate autophagosome-associated pattern; also recorded: bright punctate patterns of GFP-LC3 fluorescence
[9]; 5-FU or cisplatin (images not shown)
  GFP-LC3 distribution (fluorescence microscopy): Diffuse cytoplasmic localization of GFP-LC3
[10]
  MDC staining pattern: accumulation of MDC (bright blue punctate staining) throughout the cytoplasm
[11]
  MDC staining pattern: MDC staining patterns are diffuse
[12]
  MDC staining pattern: MDC staining patterns are diffuse
[13]
  MDC staining pattern: accumulation of MDC (bright blue punctate staining) throughout the cytoplasm
[14]
  mitochondrial depolarization (JC-1): do not show caspase-3 activity or mitochondrial membrane depolarization
[15]
  mitochondrial depolarization (JC-1): mitochondrial depolarization
[16]
  mitochondrial depolarization (JC-1): mitochondrial depolarization
[17]
  mitochondrial depolarization (JC-1): do not show caspase-3 activity or mitochondrial membrane depolarization
[18]
  cell viability (MTT): only marginally affected
[19]
  cell viability (MTT): significant effects on cell viability
[20]; 10 μM cisplatin, 48 hours
  cell viability (MTT): significant effects on cell viability
[2]; 40 μM cisplatin, 48 hours
  apoptotic cell death: 31%
  non-apoptotic cell death: 3%
[2]; [26]
  cell death morphology: predominantly apoptotic cell death morphology
[21]
  active caspase-3: displayed active caspase-3
[22]
  active caspase-3: do not show caspase-3 activity
[23]
  active caspase-3: displayed active caspase-3
[24]
  active caspase-3: do not show caspase-3 activity

## CO/C1=C\C(C)=C\[C@@H](C)[C@@H](O)[C@@H](C)C/C(C)=C/C=C/[C@H](OC)[C@@H]([C@@H](C)[C@@H](O)[C@H](C)[C@@]2(O)C[C@@H](O)[C@H](C)[C@@H](C(C)C)O2)OC1=O [Bafilomycin, Bafilomycin A1]
[3]; Bafilomycin 100 nM
  cytotoxicity (MTT): cytotoxic alone
[3]; Bafilomycin 10-100 nM
  viability (MTT): reduction in MTT
[1]; Bafilomycin 10.0 nM alone or with 5-FU (50 μM)
  morphology: significant levels of vesicular accumulation
[7]; [27]
  levels of endogenous LC3 (Western blot): induced an accumulation in the levels of endogenous LC3
[8]; 10 nM bafilomycinA1, 24 and 48 hours
  GFP-LC3 distribution (fluorescence microscopy): accumulation of GFP-LC3 tagged autophagosomes
[9]; [27]
  levels of endogenous LC3 (Western blot): induced an accumulation in the levels of endogenous LC3
[20]
  cell death (MTT): induced significant cell death
[2]; Bafilomycin 1.0 nM alone or with 5-FU (30 μM)
  morphology: significant levels of vesicular accumulation
